From patent US20220323383A1, “SMALL-MOLECULAR ADJUVANTS AND IMPLEMENTATIONS THEREOF” (JAWAHARLAL NEHRU CENTRE FOR ADVANCED SCIENTIFIC RESEARCH, priority 2019, published 2022)
Values joined by “and” are separate entries in the source; they are usually repeats but may differ in a detail not shown here. Identical values can stand only once. Like-named read-outs stand apart in the source and are kept apart here.

Assays:
Assay type in all cases: cell-based
A. baumannii R674 [1] = test: Chequerboard combination efficacy of adjuvant with antibiotics
Description: (§1) All the solvents were of reagent grade, which were distilled and dried before its use. All the reagents were purchased from Sigma-Aldrich, Alfa-Aesar, S.D. Fine, Avra and Spectrochem, and were used without further purification. Analytical thin layer chromatography (TLC) was performed on E. Merck TLC plates pre-coated with silica gel 60 F254 and visualization was carried out using UV light and Iodine. Column chromatography was performed on silica gel (60-120 mesh) using different ratio of chloroform and methanol solvent system. Nuclear magnetic resonance spectra were recorded on Bruker (AV-400) 400 MHz spectrometer in deuterated solvents. Mass spectra were obtained using 6538-UHD Accurate mass Q-TOF LC-MS instrument. For optical density measurement during bacteriology experiments, Tecan Infinite Pro series M200 Microplate Reader was used. Bacterial strains, A. baumannii (R674), P. aeruginosa (R590), E. coli (R3336) and K. pneumoniae (R3934) were used for the studies.
(§2) The combination efficacy with antibiotics from different classes and individual antibacterial activity of the synthesized adjuvants was evaluated against the above mentioned MDR and NDM-1 strains of Gram-negative bacteria. All the bacteria were grown in peptone. The bacterial samples were freeze dried and stored at −80° C. 3 μl of these stocks were added to 3 mL of peptone and the culture was grown for 6 h at 37° C. prior to the experiments.
(§3) All synthesized compounds were assayed for their antibacterial activity in combination with antibiotics in a modified chequerboard micro-dilution broth format. Stock solutions were made by serially diluting the compounds using autoclaved millipore water. The bacterial freeze dried stock samples were stored at −80° C. About 3 μL of these stocks were added to about 3 mL of the respective broth and the culture was grown for about 6 h at about 37° C. with prior to the experiments. This 6 h grown culture gives about 10^8 cfu/mL in case of A. baumannii R674, P. aeruginosa R590, E. coli R3336 and K. pneumoniae R3934 which were determined by spread plating method. This 6 h grown culture was diluted to give effective cell concentration of 10^5 cfu/mL, and then used for the chequerboard assay. Adjuvants and antibiotics were serially diluted in two-fold, in sterile millipore water. 25 μL of these serial dilutions of the antibiotics and 25 μL of compounds were added to the wells of 96 well plate followed by the addition of about 150 μL of bacterial solution (˜10^5 cfu/mL). The plates were then incubated at about 37° C., 150 rpm in the incubator and O.D at 600 nm was recorded at 24 h using TECAN (Infinite series, M200 pro) Plate Reader. The wells with similar OD as the media control contained the required concentration of the antibiotic and adjuvant for antibacterial efficacy. The potentiation ability of the adjuvants was determined by calculating the potentiation factor and the Fractional Inhibitory concentration (FIC) index. Fractional Inhibitory Concentration (FIC) is expressed as, FIC=[X]/MICX, where [X] is the lowest inhibitory concentration of antibiotic in the presence of the adjuvant. Whereas FIC index is expressed as, FICI=FICantibiotic+FICadjuvant. The values of FIC index give an insight about the nature of the combination. Potentiation factor which means fold-reduction in the MIC of the antibiotic, when used in combination with the adjuvant was also determined. Potentiation factor=[Minimum inhibitory concentration (MIC) of antibiotic in absence of adjuvant]/[MIC of antibiotic in presence of adjuvant]. […] The combination efficacies of adjuvants with various antibiotics are furnished in Table 1. It should be noted that various other resistant strains of bacteria (Gram-positive and Gram-negative) can be tested with a number of other antibiotics to check the potentiation capacity of the adjuvants.

A. baumannii R674 [2] = test: Individual antibacterial activity (MIC) of adjuvants; conditions: adjuvant alone; A. baumannii R674
Description: as §2, §3

human RBCs = test: Haemolytic activity; conditions: concentration at which 50% of human blood cells are lysed; 1 h at 37° C.
Description: Erythrocytes were isolated from freshly drawn, heparanized human blood and re-suspended to 5 vol % in PBS (pH 7.4). In a 96-well microtiter plate, 150 μl of erythrocyte suspension was added to 50 μl of serially diluted compound. Two controls were made, one without compound and other with 50 μl of 1 vol % solution of Triton X-100. The plate was incubated for 1 h at 37° C. The plate was then centrifuged at 3,500 rpm for 5 min, 100 μl of the supernatant from each well was transferred to a fresh 96-well microtiter plate, and A540 was measured. Percentage of hemolysis was determined as (A−A0)/(Atotal−A0)×100, where A is the absorbance of the test well, A0 the absorbance of the negative controls (without compound), and Atotal the absorbance of 100% hemolysis wells (with Triton X-100), all at 540 nm.
Toxicity studies of the compounds were done on freshly drawn human RBCs. Toxicity of the compounds were defined by their HC50 values (Table 2), i.e. the concentration of compound at which 50% of the blood cells are lysed.

P. aeruginosa R590 [3] = test: Chequerboard combination efficacy of adjuvant with antibiotics
Description: as §1, §2, §3

P. aeruginosa R590 [4] = test: Individual antibacterial activity (MIC) of adjuvants; conditions: adjuvant alone; P. aeruginosa R590
Description: as §2, §3

[5] = antibiotic Rifampicin, P. aeruginosa R590
[6] = antibiotic Tetracycline, P. aeruginosa R590

Structure (SMILES) | FICI (A. baumannii R674 [1]; antibiotic Rifampicin) | MIC of antibiotic in presence of adjuvant (A. baumannii R674 [1]; antibiotic Rifampicin) | Potentiation factor (A. baumannii R674 [1]; antibiotic Rifampicin) | FICI (A. baumannii R674 [1]; antibiotic Tetracycline) | MIC of antibiotic in presence of adjuvant (A. baumannii R674 [1]; antibiotic Tetracycline) | Potentiation factor (A. baumannii R674 [1]; antibiotic Tetracycline) | MIC against clinical isolates of bacteria (A. baumannii R674 [2]) | HC50 (human RBCs) | FICI (P. aeruginosa R590 [3]; [5]) | MIC of antibiotic in presence of adjuvant (P. aeruginosa R590 [3]; [5]) | Potentiation factor (P. aeruginosa R590 [3]; [5]) | FICI (P. aeruginosa R590 [3]; [6]) | MIC of antibiotic in presence of adjuvant (P. aeruginosa R590 [3]; [6]) | Potentiation factor (P. aeruginosa R590 [3]; [6]) | MIC against clinical isolates of bacteria (P. aeruginosa R590 [4]) | FICI (P. aeruginosa R590 [3]) | MIC of antibiotic in presence of adjuvant (P. aeruginosa R590 [3])
NCCCN(CCCN)C(=O)Cc1ccccc1.O=C(O)C(F)(F)F.O=C(O)C(F)(F)F [Compound 1, N,N-bis((3-amino)propyl)phenyl ethanamide bis(trifluoroacetate)] | <0.75 | 32 µg/mL | 2 | <0.5 | 64 µg/mL | 2 | >512 µg/mL | >1024 µg/mL | – | – | – | – | – | – | – | – | –
NCCCN(CCCN)C(=O)Cc1cccc2ccccc12.O=C(O)C(F)(F)F.O=C(O)C(F)(F)F [Compound 2, N,N-bis((3-amino)propyl)naphthyl ethanamide bis(trifluoroacetate)] | <0.375 | 8 µg/mL | 8 | <0.625 | 64 µg/mL | 2 | >512 µg/mL | >1024 µg/mL | <0.375 | 16 µg/mL | 8 | <0.5 | 64 µg/mL | 4 | >512 µg/mL | – | –
NCCCN(CCCN)C(=O)c1ccc(-c2ccccc2)cc1.O=C(O)C(F)(F)F.O=C(O)C(F)(F)F [Compound 3] | <0.5 | 16 µg/mL | 4 | – | >64 µg/mL | <2 | >512 µg/mL | >1024 µg/mL | – | – | 4 | – | – | <4 | >512 µg/mL | <0.5 | 32 µg/mL and >64 µg/mL
NCCCN(CCCN)C(=O)CC(c1ccccc1)c1ccccc1.O=C(O)C(F)(F)F.O=C(O)C(F)(F)F [Compound 4, N,N-bis((3-amino)propyl)3,3-diphenyl propanamide bis(trifluoroacetate)] | <0.26 | 1 µg/mL | 64 | <0.5 | 32 µg/mL | 4 | >512 µg/mL | >1024 µg/mL | <0.28 | 4 µg/mL | 32 | <0.5 | 64 µg/mL | 4 | >512 µg/mL | – | –
CC(C)(C)OC(=O)NC(Cc1c[nH]c2ccccc12)C(=O)N(CCCN)CCCN.O=C(O)C(F)(F)F.O=C(O)C(F)(F)F.O=C(O)C(F)(F)F (centres unmarked) [Compound 5, N,N-bis((3-amino)propyl) 2′-(Boc-amino), 3′-indolo propanamide tris(trifluoroacetate)] | <0.375 | 8 µg/mL | 8 | – | – | <2 | >512 µg/mL | >1024 µg/mL | <0.3125 | 8 µg/mL | 16 | – | >64 µg/mL | <4 | >512 µg/mL | – | –
NCCCN(CCCN)CC(=O)NC1C2CC3CC(C2)CC1C3.O=C(O)C(F)(F)F.O=C(O)C(F)(F)F.O=C(O)C(F)(F)F (centres unmarked) [Compound 6, N-(Adamantan-2-yl)-2-[N′,N′-{bis-(3-amino)propyl}amino] ethanamide tris(trifluoroacetate)] | <0.06 | <0.25 µg/mL | >256 | – | >64 µg/mL | <2 | 512 µg/mL | >1024 µg/mL | <0.06 | <0.25 µg/mL | >512 | – | >64 µg/mL | <4 | 512 µg/mL | – | –
NCCCC[C@H](N)C(=O)NCCCN(CCCNC(=O)[C@@H](N)CCCCN)C(=O)Cc1cccc2ccccc12 [Compound 7, N,N-bis-[(6-(^LLys)amido)propyl] naphthyl ethanamide tetrakis(trifluoroacetate)] | <0.25 | 8 µg/mL | 8 | <0.5 | 32 µg/mL | 4 | >512 µg/mL | >1024 µg/mL | <0.28 | 4 µg/mL | 32 | <0.5 | 64 µg/mL | 4 | >512 µg/mL | – | –
NCCCC[C@H](N)C(=O)NCCCN(CCCNC(=O)[C@@H](N)CCCCN)C(=O)CC(c1ccccc1)c1ccccc1 [Compound 8, N,N-bis-[(6-(^LLys)amido)propyl] 3,3-diphenyl propanamide tetrakis(trifluoroacetate)] | <0.19 | 4 µg/mL | 16 | – | >64 µg/mL | <2 | >512 µg/mL | >1024 µg/mL | <0.14 | 2 µg/mL | 64 | <0.375 | 64 µg/mL | 4 | >512 µg/mL | – | –
NCCCC[C@H](N)C(=O)NCCCN(CCCNC(=O)[C@@H](N)CCCCN)CC(=O)NC1C2CC3CC(C2)CC1C3.O=C(O)C(F)(F)F.O=C(O)C(F)(F)F.O=C(O)C(F)(F)F.O=C(O)C(F)(F)F.O=C(O)C(F)(F)F (some centres unmarked) [Compound 9] | <0.14 | 1 µg/mL | 64 | <0.25 | 16 µg/mL | 8 | >512 µg/mL | >1024 µg/mL | <0.13 | 0.5 µg/mL | 256 | <0.19 | 16 µg/mL | 16 | >512 µg/mL | – | –
